Source: paper PMC11864979, “First-in-class ultralong-target-residence-time p38α inhibitors as a mitosis-targeted therapy for colorectal cancer” (Nature Cancer, 2025)
Several values for one entry are separate records, joined by “and”; a condition that tells them apart may be missing. Equal values may be shown once. Read-outs that look alike come from different tables or passages of the source.

How the values were obtained:
[1] = full blood analysis of mice treated for 4 days or 10 weeks (Sysmex KX-21N); assay type: in vivo, mouse; conditions: for Hemoglobin / MCV / MCH / MCHC: individual animals; for Hemoglobin: ED Fig. 10a; for MCV: ED Fig. 10b; for MCH: ED Fig. 10c; for MCHC: ED Fig. 10d; for Hematocrit (%): mice
From the text: We conducted a daily treatment of wild-type mice with 2015 or carrier for either 4 days or 10 weeks and subsequently quantified leukocytes, platelets and erythrocytes. Furthermore, we determined the hematocrit and the hemoglobin concentration and calculated routinely used red blood cell indices (mean corpuscular volume (MCV), mean corpuscular hemoglobin (MCH) and mean corpuscular hemoglobin concentration (MCHC)). […] No mice were excluded during treatment studies. […] GFP imaging of tumors was performed using a Hamamatsu imaging system. For quantification of compounds in the murine plasma, 20 μl of tail-vein blood was diluted with 80 μl of heparin solution, before 200 μl of ice-cold acetonitrile with a defined internal standard was added. The samples were sonicated and centrifuged and the supernatant was subjected to liquid chromatography-mass spectrometry quantification. Full blood analyses were performed with the Sysmex KX-21N hematology analyzer.

[2] = test system: subcutaneous human PDO6 CRCs; assay: treatment of subcutaneous human PDO6 CRCs in CB17 Scid beige mice; assay type: in vivo, mouse
Experimental: Subcutaneous injection, splenic seeding or cecum injection of organoids was performed in 8–10-week-old C57BL/6 N/Crl, Rag2^−/− (B6.Cg-Rag2^tm1.1Cgn/J), or CB17 Scid beige (CB17.Cg-Prkdc^scidLyst^bg-J/Crl) mice, obtained from Charles River. The organoids were dissociated into single cells, washed with PBS and injected in a 1:1 mixture of PBS and Matrigel. For murine organoids, 1 × 10^5 cells were injected into the left and right flanks or the spleen capsule and 2 × 10^6 cells were injected into the cecum wall. For human organoids, 4 × 10^5 cells were injected into the flanks of CB17 Scid beige mice. For splenic seeding and cecum injection, mice were anaesthetized using ketamine (100 mg kg^−1, intraperitoneally) and xylazin (10 mg/kg, intraperitoneally) in NaCl and a small laparotomy below the thorax was performed. Upon injection, the puncture region was washed with prewarmed H2O. Within the first week after operation, the mice were treated with the analgesics carprofen and metamizol. The maximum size of individual tumor nodules permitted by the regional authority of the state of Baden-Wuerttemberg (Regierungspraesidium Tübingen: subcutaneous tumor nodules, 1 cm; other tumor nodules, 0.5 cm) was not exceeded.

[3] = target: T1, 340 wild-type kinases (Homo sapiens, UniProt Q96L34); assay: selectivity profiling in a panel of 340 wild-type kinases (Reaction Biology Europe); assay type: binding
T1 construct: purchased Reaction Biology Europe
T1 sequence (Q96L34 1-752): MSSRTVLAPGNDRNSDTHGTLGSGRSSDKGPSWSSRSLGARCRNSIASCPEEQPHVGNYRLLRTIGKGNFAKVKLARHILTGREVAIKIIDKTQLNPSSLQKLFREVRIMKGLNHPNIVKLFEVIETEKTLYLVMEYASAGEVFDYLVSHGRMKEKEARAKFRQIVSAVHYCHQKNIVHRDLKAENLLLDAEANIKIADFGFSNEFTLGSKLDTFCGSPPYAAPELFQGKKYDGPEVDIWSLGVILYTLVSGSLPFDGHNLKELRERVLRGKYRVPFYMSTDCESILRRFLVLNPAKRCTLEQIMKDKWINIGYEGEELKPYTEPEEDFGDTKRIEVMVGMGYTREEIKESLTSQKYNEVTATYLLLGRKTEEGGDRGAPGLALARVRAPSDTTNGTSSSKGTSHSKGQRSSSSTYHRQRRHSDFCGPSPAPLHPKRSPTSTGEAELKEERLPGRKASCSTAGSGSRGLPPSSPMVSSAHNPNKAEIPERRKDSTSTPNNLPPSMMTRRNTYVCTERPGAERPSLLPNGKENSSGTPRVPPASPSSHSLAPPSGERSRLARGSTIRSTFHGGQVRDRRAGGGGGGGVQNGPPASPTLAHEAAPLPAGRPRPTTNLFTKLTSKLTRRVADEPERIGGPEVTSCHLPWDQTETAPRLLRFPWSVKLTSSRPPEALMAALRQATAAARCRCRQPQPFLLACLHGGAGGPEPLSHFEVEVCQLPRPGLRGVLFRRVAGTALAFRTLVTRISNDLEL

[4] = target: T2, 340 wild-type kinases (Homo sapiens, UniProt Q9HCP0); assay: as above; assay type: binding
T2 construct: purchased Reaction Biology Europe

[5] = test system: SCC321 human colon organoids; assay: cell viability in healthy human colon organoids SCC321; assay type: cell-based; conditions: for Cell viability (%): ED Fig. 10g, replicates
Experimental: (§1) Primary tumor material was chopped, washed in ice-cold medium and transferred into basic medium (Supplementary Table 17), supplemented with 2.5 mg ml^−1 collagenase II (Thermo Fisher Scientific), 2.5 mg ml^−1 collagenase XI (Sigma-Aldrich), 1 mg ml^−1 Dispase II (Sigma-Aldrich), 100 µg ml^−1 DNase I and 10.5 µM Y-27632 dihydrochloride (Invitrogen). Tumor digestion was performed at 37 °C and stopped by adding medium containing 10% FBS. The mixture was centrifuged for 5 min at 300g. Red blood cells were removed with ACK lysing buffer (Thermo Fisher Scientific; 5 min at room temperature) and the pellet was resuspended in medium. Approximately 1,000 cells were resuspended and plated in 50 µl of Cultrex RGF BME, type 2 (R&D Systems). The ascites material was pelleted by centrifugation at 300g and washed three times with ice-cold PBS. Human CRC organoids were cultured in human CRC medium (Supplementary Table 17) at 37 °C and 7% CO2. Within the first week, the medium was supplemented with 10.5 µM Y-27632 dihydrochloride (Invitrogen). The human colon organoids (SCC311 and SCC321) were purchased from Sigma-Aldrich and cultured in human colon medium (Supplementary Table 17) at 37 °C and 7% CO2. They were derived from participants with the following sex and age: […].
(§2) For in vitro treatment studies, organoids were mechanically dissociated and digested using TrypLE supplemented with 100 µg ml^−1 DNaseI and 10.5 µM Y-27632 dihydrochloride (Invitrogen) at 37 °C. A total of 1,000–2,000 single cells were plated per well in white 96-well plates (Greiner) in culture medium containing 10% GFR Matrigel or Cultrex BME. The treatment with doxycycline (5 µg ml^−1), pharmacological inhibitors or corresponding volumes of DMSO was started 24 h after plating. Doxycycline was obtained from Sigma-Aldrich. […] Cell viability was measured by means of CellTiter-Glo 3D or CellTiter-Glo 2.0 reagent (Promega) according to the manufacturers’ instructions and the Infinite M Plex reader (Tecan, i-control version 3.9.1 software). Results were normalized to vehicle (DMSO) or to shNC. For cell-doubling assays, the cell number was quantified at the corresponding time points using Guava EasyCyte flow cytometer (Luminex, CytoSoft v5.2 software).

[6] = as above; assay type: cell-based; conditions: male, human, replicates
Experimental: as §1, §2

T2 sequence (Q9HCP0 whole entry): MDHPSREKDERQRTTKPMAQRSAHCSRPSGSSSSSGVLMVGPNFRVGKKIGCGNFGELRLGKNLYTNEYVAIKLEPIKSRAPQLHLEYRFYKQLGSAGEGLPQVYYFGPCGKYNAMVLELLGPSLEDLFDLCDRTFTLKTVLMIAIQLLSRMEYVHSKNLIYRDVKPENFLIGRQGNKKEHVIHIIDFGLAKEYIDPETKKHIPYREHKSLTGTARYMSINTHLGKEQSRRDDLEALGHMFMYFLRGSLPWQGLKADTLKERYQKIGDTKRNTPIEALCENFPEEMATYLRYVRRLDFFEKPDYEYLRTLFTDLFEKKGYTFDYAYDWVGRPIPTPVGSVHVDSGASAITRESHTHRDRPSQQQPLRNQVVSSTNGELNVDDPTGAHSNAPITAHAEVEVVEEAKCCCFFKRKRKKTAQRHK

Which “blood cell fractions versus carrier (in words)” value ([1]; 4 days or 10 weeks daily treatment) does the source give for `CNC(=O)c1ccc2c(c1)C(=O)c1ccc(Nc3ccc(F)c(NC(=O)C4CC4)c3)cc1CC2` [Compound 2015] here?
Its value is “no relevant differences”.

And the Hemoglobin ([1]; mice treated 10w)?
Its Hemoglobin is 14.6 g/dL and 14.3 g/dL and 13.7 g/dL and 14.0 g/dL.

What about the MCV ([1]; mice treated 10w) of the same compound?
The MCV was 52.0 fL and 52.3 fL and 51.4 fL and 51.7 fL.

And the MCH ([1]; mice treated 10w)?
Its MCH is 14.2 pg and 14.0 pg and 13.8 pg.

What about the MCHC ([1]; mice treated 10w) of the same compound?
Its MCHC is 27.4 g/dL and 26.8 g/dL and 26.9 g/dL and 26.6 g/dL.

And the Hemoglobin ([1]; mice treated 4d)?
Its Hemoglobin is 14.7 g/dL and 15.4 g/dL and 14.6 g/dL and 14.5 g/dL.

What about the MCV ([1]; mice treated 4d) of the same compound?
Its MCV is 52.3 fL and 51.8 fL and 51.9 fL and 51.5 fL.

What about the MCH ([1]; mice treated 4d) of the same compound?
Its MCH is 14.5 pg and 14.4 pg and 13.7 pg.

What about the MCHC ([1]; mice treated 4d) of the same compound?
Its MCHC is 27.7 g/dL and 26.4 g/dL and 26.6 g/dL.

And the “Hematocrit (%)” value ([1]; 10w treatment)?
Its value is 53.3% and 53.4% and 50.9% and 52.6%.

And the “Hematocrit (%)” value ([1]; 4d treatment)?
Its value is 53.1% and 55.5% and 55.2% and 54.6%.

What about the Tumor weight ([2]; individual subcutaneous PDO6 tumors, treated 4 weeks) of the same compound?
Its Tumor weight is 25 g and 16 g and 4 g and 32 g.

What about the “tumor size of PDO6-derived CRCs (in words)” value ([2]; treated for 4 weeks) of the same compound?
Its value is “strong reduction in tumor size”.

What about the remaining activity at 0.2 µM ([3]; 0.2 µM 2015, read-out: MARK4 residual activity) of the same compound?
The remaining activity at 0.2 µM was 94.8%.

And the remaining activity at 1 µM ([3]; 1 µM 2015, read-out: MARK4 residual activity)?
Its remaining activity at 1 µM is 84.1%.

What about the remaining activity at 0.2 µM ([3]; MARK4, 0.2 µM, read-out: residual activity) of the same compound?
The remaining activity at 0.2 µM was 94.8%.

What about the remaining activity at 1 µM ([3]; MARK4, 1 µM, read-out: residual activity) of the same compound?
The remaining activity at 1 µM was 84.1%.

What about the remaining activity at 0.2 µM ([4]; 0.2 µM 2015, read-out: CK1gamma1 residual activity) of the same compound?
The remaining activity at 0.2 µM was 115%.

What about the remaining activity at 1 µM ([4]; 1 µM 2015, read-out: CK1gamma1 residual activity) of the same compound?
Its remaining activity at 1 µM is 107%.

What about the remaining activity at 0.2 µM ([4]; CK1gamma1, 0.2 µM, read-out: residual activity) of the same compound?
The remaining activity at 0.2 µM was 115%.

What about the remaining activity at 1 µM ([4]; CK1gamma1, 1 µM, read-out: residual activity) of the same compound?
The remaining activity at 1 µM was 107%.

And the “Cell viability (%)” value ([5]; 2015 0,5 µM, 5 µM)?
Its value is 115.51% and 112.50%.

And the “Cell viability (%)” value ([5]; 2015 0,25 µM, 25 µM)?
The value was 100.29% and 98.19%.

And the “Cell viability (%)” value ([5]; 2015 1 µM)?
The value was 83.04% and 75.31%.

And the “response of healthy human colon culture (in words)” value ([5]; SCC321, 4 d)?
The value was “only a very weak response”.

What about the viability at 25 µM ([6]; healthy human colon organoids SCC321, 2015 0,25 µM, ED Fig. 10g) of the same compound?
The viability at 25 µM was 105%.

And the viability at 5 µM ([6]; healthy human colon organoids SCC321, 2015 0, ED Fig. 10g)?
The viability at 5 µM was 109%.

What about the viability at 1 µM ([6]; healthy human colon organoids SCC321, 2015 1 µM, ED Fig. 10g) of the same compound?
Its viability at 1 µM is 86.9%.
